Assay results taken from US7615554B2, “Erastin and erastin binding proteins, and uses thereof” (Prolexys Pharmaceuticals, Inc., priority 2005, dated 2009).

Key:
engineered cell lines = assay: Selectivity across the engineered cell lines (calcein AM IC50 ratios); assay type: cell-based, human; conditions: from selectivity ratio for each subsequent pair of cell lines in a series
Method: To calculate this selectivity score between two cell lines, the IC50 for a compound in one cell line was divided by the IC50 for the same compound in a second cell line. […] The “tumor selectivity score” was calculated for each compound, by dividing the IC50 value for the compound in the parental, primary BJ cells by the IC50 value for the compound in engineered BJ-TERTALT/ST/RAS^V12 cells, containing all four genetic elements required to create tumorigenic cells (Table 1).
Applicants sought to determine the genetic basis of selectivity for each compound. That is, for each compound, they attempted to define the gene or combination of genes responsible for rendering cells sensitive to the compound (Table 1).
The IC50 in primary BJ cells was divided by the IC50 in BJ-TERT/LT/ST/RAS^V12 tumorigenic cells to obtain a tumor selectivity ratio for each compound. The compound selectivity for each genetic element was determined by calculating the selectivity ratio for each subsequent pair of cell lines in a series.

HT-1080 xenografts = assay: HT-1080 tumor treatment study; assay type: in vivo, mouse; conditions: nude Balb/c mice; 100 or 50 mg/Kg, QD×5 days, IP
Method: Nude Balb/c (Nu/Nu strain, Charles River Laboratories), female, 5-6 week old (˜20 g average body weight).
Both compounds were formulated in an identical manner. For the 100 mg/kg dose level, each compound was delivered at a concentration of 10.0 mg/ml, in an injection volume of 0.2 ml. For the 50 mg/kg dose level, each compound was delivered at a concentration of 5.0 mg/ml, in an injection volume of 0.2 ml. For both dose levels, the vehicle contained 0.025% Tween-80, 0.01% benzyl alcohol, 35 mM acetic acid (HOAc), 100 mM potassium phosphate-buffer, and 32 mM sucrose, pH=6.5.
• A: PRLX compound 6 @ 100 mg/Kg, QD×5 days, IP, n=8 • B: PRLX compound 6 @ 50 mg/Kg, QD×5 days, IP, n=8 • C: PRLX compound 5 @ 100 mg/Kg, QD×5 days, IP, n=8 • D: PRLX compound 5 @ 50 mg/Kg, QD×5 days, IP, n=8 • E: Vehicle Control, QD×5 days, IP, n=8 • F: Untreated Control, n=8 Treatment Schedule:
Beginning when the mean tumor volume reached ˜200 mm^3, and continuing through day 5, every day, each animal was administered a single IP injection of one of the above treatments, for a total of 5 doses. […]
Starting on Day 1, all animals were weighed, and tumor dimensions (length (L) and width (W)) were measured, every other day. […]
The resulting tumor volume values were averaged for each study group for each time point, and were then plotted against time. Variance was expressed as standard error of the mean (±SEM).

PANC-1 xenografts = assay: PANC-1 tumor treatment study; assay type: in vivo; conditions: immunodeficient nude mouse; once a day for five consecutive days
Method: The experimental plan for the PANC-1 study was essentially identical to that of the HT-1080 study outlined above in Example 10 with the following exceptions: approximately 30-40 mg fragment of passaged PANC-1 tumor tissue was implanted subcutaneously in the right flank of an immunodeficient nude mouse. Tumor growth was monitored daily and when the tumors reached approximately 100 mm^3, animals harboring similarly sized tumors were group matched and compound dosing was initiated. Administration of compound 5 occurred once a day for five consecutive days at the doses listed below. In the PANC-1 xenografts, gemcitabine, administered at the maximum tolerated dose for the model, was used as a control. The gemcitabine regimen was 180 mg/kg […] on every third day over a period of 9 days.

[1] = test system: BJ-TERT/LT/ST/RAS^V12 tumorigenic cells; assay: Calcein AM viability assay, BJ-TERT/LT/ST/RAS^V12 cells; assay type: cell-based, human
Source text: Described here is work carried out to identify compounds with increased potency or activity in the presence of hTERT, LT, ST, E6, E7 or RAS^V12. Although the work described herein made use of hTERT, LT, ST, E6, E7 and RAS^V12 as transforming genes, future studies can make use of a wide variety of cancer-associated alleles using this methodology in order to define the signaling networks that involve many oncogenes and tumor suppressors. Engineered cell lines with these genetic elements were used to screen 23,550 compounds, including 20,000 compounds from a combinatorial library, 1,990 compounds from the National Cancer Institute diversity collection, and 1,540 biologically active known compounds that were selected and purchased by Applicant and formatted into a screenable collection. […] Cell viability was measured using the dye calcein acetoxymethyl ester (calcein AM) (Wang et al., 1993, Hum. Immunol. 37, 264-270), which is a non-fluorescent compound that freely diffuses into cells. […]
Calcein acetoxylmethyl ester (AM) is a cell membrane-permeable, non-fluorescent compound that is cleaved by intracellular esterases to form the anionic, cell-impermeable, fluorescent compound calcein. […] Total fluorescence intensity in each well was recorded on a Packard Fusion platereader, and converted to a percent inhibition of signal by subtracting the instrument background and dividing by the average signal obtained when cells were not treated with any compound. […]
Mean RFU (relative fluorescence units) for untreated cells was calculated by averaging columns 1, 2, and 23 (wells with cells but lacking compounds). The calcein background was calculated by averaging column 24 (wells with calcein, but lacking cells). Percentage inhibition of each well was calculated as [1−(RFU−calcein control)/(untreated cell−calcein control)*100]. […]

BJ primary cells = assay: Sensitization of BJ primary cells by co-treatment (calcein AM viability); assay type: cell-based, human; conditions: BJ (or BJ-TERT) cells, simultaneous treatment with camptothecin
Source text: (A-C) Western blot of lysates from BJ, BJ-TERT, BJ-TERT/LT/ST, BJ-TERT/LT/ST/RAS^V12, BJ-TERT/LT/RAS^V12 and BJ-TERT/LT/RAS^V12/ST cells with an antibody directed against topoisomerase II (A) or TOPI (B, C). In panel (C), cells were transfected with a siRNA directed against TOPI, lamic A/C or with a control double strand DNA duplex of the same length (TOPI dsDNA). In each case, the blot was probed with an antibody against eIF-4E to identify differences in the amount of protein loaded. The relative amount is quantitated below each band. (D) A TOPI siRNA prevents cell death caused by camptothecin in engineered tumor cells. Cell number was determined after transfection with a siRNA directed against TOPI and treatment with the indicated concentrations of camptothecin. (E) Okadaic acid, an inhibitor of PP2A and other cellular phosphatases, sensitizes primary human cells to camptothecin. BJ primary cells were treated simultaneously with the indicated concentrations of both camptothecin and okadaic acid and the effect on calcein AM viability staining was determined. […] BJ primary cells were treated with the indicated concentrations of okadaic acid and the expression level of TOPI was determined by western blot. The relative amount is quantitated below each band.
The compounds in group (iii) are camptothecin (CPT) and a novel compound from a combinatorial library, which Applicants have named erastin, for eradicator of RAS and ST-expressing cells (FIG. 2). Efficient CPT-induced and erastin-induced cell death requires the presence of both ST and RAS^V12 (FIGS. 3 and 4 and Table 1). Although CPT and erastin have a similar genetic basis of selectivity, they have distinct mechanisms of action. CPT is partially active in cells lacking RB function (via expression of E7), whereas erastin is not, and CPT requires two days to cause death in BJ-TERT/LT/ST/RAS^V12 cells, while erastin is 100% effective within 18 hours (FIGS. 3 and 4). […]

COc1ccc(C[C@H]2C(=O)N[C@@H](C)C(=O)N(C)[C@@H]3C(=O)N(C)[C@@H](Cc4ccc(O)c(c4)Oc4ccc(cc4)[C@@H]3O)C(=O)N[C@H](C)C(=O)N[C@@H](C)C(=O)N2C)cc1 [Bouvardin]
Genetic basis of Selectivity (engineered cell lines): non-specific

CCOc1ccccc1-n1c(CN2CCNCC2)nc2ccccc2c1=O [Compound 5, 3-(2-ethoxyphenyl)-2-(piperazin-1-ylmethyl)quinazolin-4(3H)-one]
antitumor activity in HT-1080 xenografts (tumor volume) (HT-1080 xenografts): robust tumor regression
antitumor activity in PANC-1 xenografts (tumor volume) (PANC-1 xenografts): tumor regression

CCOc1ccccc1-n1c(C(C)N2CCNCC2)nc2ccccc2c1=O (stereo not shown) [Compound 6]
antitumor activity in HT-1080 xenografts (tumor volume) (HT-1080 xenografts): tumor growth inhibition
antitumor activity in PANC-1 xenografts (tumor volume) (PANC-1 xenografts): tumor growth inhibition

COc1cccc2c1C(=O)c1c(O)c3c(c(O)c1C2=O)C[C@@](O)(C(C)=O)C[C@@H]3O[C@H]1C[C@H](N)[C@H](O)[C@H](C)O1 [Daunorubicin, daunorubicin]
Genetic basis of Selectivity (engineered cell lines): TERT/RB

COc1cccc2c1C(=O)c1c(O)c3c(c(O)c1C2=O)C[C@@](O)(C(=O)CO)C[C@@H]3O[C@H]1C[C@H](N)[C@H](O)[C@H](C)O1 [Doxorubicin, doxorubicin]
Genetic basis of Selectivity (engineered cell lines): TERT/RB

CS[C@H]1SC[C@H]2C(=O)N(C)[C@@H](C(C)C)C(=O)OC[C@@H](NC(=O)c3cnc4ccccc4n3)C(=O)N[C@@H](C)C(=O)N(C)[C@@H]1C(=O)N(C)[C@@H](C(C)C)C(=O)OC[C@@H](NC(=O)c1cnc3ccccc3n1)C(=O)N[C@@H](C)C(=O)N2C [Echinomycin, echinomycin]
Genetic basis of Selectivity (engineered cell lines): non-specific

CCOc1ccccc1-n1c(C(C)N2CCN(C(=O)COc3ccc(Cl)cc3)CC2)nc2ccccc2c1=O (stereo not shown) [Erastin, erastin]
effectiveness of cell killing ([1]; BJ-TERT/LT/ST/RAS^V12 cells, within 18 hours): 100%
time to irreversible, non-apoptotic cell death ([1]; ST- and RAS^V12-dependent): 12 to 24 h

O=C1c2c(O)ccc(O)c2C(=O)c2c(NCCNCCO)ccc(NCCNCCO)c21 [Mitoxantrone, mitoxantrone]
Genetic basis of Selectivity (engineered cell lines): TERT/RB

NC(=O)c1cn([C@@H]2O[C@H](CO)[C@@H](O)[C@H]2O)c2ncnc(N)c12 [Sangivamycin, sangivamycin]
Genetic basis of Selectivity (engineered cell lines): non-specific

COc1cc([C@@H]2c3cc4c(cc3[C@H](O)[C@H]3COC(=O)[C@H]23)OCO4)cc(OC)c1OC [podophyllotoxin]
sensitization to camptothecin (BJ primary cells): does not sensitize BJ or BJ-TERT cells to CPT
